Patent publication US9084395B2, “Method to arrest growth of invasive species' seeds while in non-natural environment prior to transport” (priority 2012, dated 2015)
Like-named read-outs stand apart in the source and are kept apart here.

Columns and labels:
[1] = tested on: whitetop (Cardaria draba) seeds; experiment: Protocol 1 clean seed dip treatment and germination test, whitetop; type: in vivo; details: non-soil environment
Procedure: (§1) All seeds for a Protocol 1 Test were removed from the flower parts and used as clean seeds. A treatment consisted of 100 seeds with four replications for a total of at least 400 seeds per treatment. In some cases extra seeds were treated to accommodate additional germination tests, if needed. In lots of 100, seeds were first rinsed with water to simulate a wash treatment. These pre-wetted seeds were then dipped for one minute in one of the Treatment Rinse percent solutions per volume as show below. Three quality glyphosate products were used. […] The inert ingredients typically comprise tallow amine, lecithin, algaecide and purified water. […] The surfactants added to the percent solution were a penetrator, comprising methylated seed oil, and a spreader, comprising polyether-polymethylsiloxane-copolymer polyether or silicone polyether copolymer.
(§2) Seeds were stirred during the dip to assure all seeds were exposed to the solution. Treated seeds were allowed to air dry with the time to dry recorded. Three main seed types were used in the Protocol 1 Test: whitetop (Cardaria draba), spotted knapweed (Centauria maculosa), and diffuse knapweed (Centauria. diffusa). Two additional seed types were used for one treatment each, Russian thistle (Salsola tragus) and Scotch thistle (Onopordum acanthium).
(§3) When seeds were thoroughly dry after treatment they were packaged and sent for germination testing. […]

[2] = tested on: Scotch thistle (Onopordum acanthium) seeds; details: soil application of glyphosate; cited from earlier work
[3] = tested on: spotted knapweed (Centauria maculosa) seeds; experiment: Protocol 1 clean seed dip treatment and germination test, spotted knapweed; type: in vivo; details: non-soil environment
Procedure: as §1, §2, §3

[4] = tested on: Scotch thistle (Onopordum acanthium) seeds; experiment: Protocol 1 clean seed treatment, germination test in soil environment, Scotch thistle; type: in vivo
Procedure: as §1, §2, §3

[5] = tested on: Russian thistle (Salsola tragus) seeds; experiment: Protocol 1 clean seed dip treatment and germination test, Russian thistle; type: in vivo; details: non-soil environment
Procedure: as §1, §2, §3

[6] = tested on: diffuse knapweed (Centauria. diffusa) seeds; experiment: Protocol 1 clean seed dip treatment and germination test, diffuse knapweed; type: in vivo; details: non-soil environment
Procedure: as §1, §2, §3

Question: With `O=C(O)CNCP(=O)(O)O` [glyphosate] as the compound, how does the “control, considering treated seeds that may grow to reproductive maturity” value (shortened to “control … to reproductive maturity”) [1] read?
Answer: Its value is 95%.

Question: And the “control of Scotch thistle” value [2]?
Answer: The value was “not controlled”.

Question: What about the “control … to reproductive maturity” value [3] of the same compound?
Answer: Its value is 100%.

Question: And the “control … to reproductive maturity” value ([4]; Scotch thistle, non-soil environment)?
Answer: The value was 100%.

Question: What about the “control of Scotch thistle” value ([4]; direct application of glyphosate to the seed, then placed in soil to germinate) of the same compound?
Answer: Its value is “controlled”.

Question: What about the “control … to reproductive maturity” value [5] of the same compound?
Answer: The value was 72%.

Question: What about the “control … to reproductive maturity” value [6] of the same compound?
Answer: Its value is 99%.
